Target: DGKα (Homo sapiens (Human), UniProt P23743)
Assay: Human DGKα kinase activity inhibition assay (ADP-Glo)
Format: biochemical
Conditions: recombinant full-length human DGKα, 55 μM ATP, 7 μM 1,2-dioleoyl-sn-glycerol, read-out: IC50 values of examples in in vitro human DGKa kinase activity inhibition assays
Method in brief: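 Recombinant full-length human DGKα (C-terminal FLAG, from insect cells) phosphorylated 1,2-dioleoyl-sn-glycerol presented in octyl-glucopyranoside micelles. ADP formed was quantified by ADP-Glo luminescence. Compounds were added from 100-fold DMSO stocks.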

Sequence of DGKα (P23743 other isoform, or with tags, fused parts or gaps): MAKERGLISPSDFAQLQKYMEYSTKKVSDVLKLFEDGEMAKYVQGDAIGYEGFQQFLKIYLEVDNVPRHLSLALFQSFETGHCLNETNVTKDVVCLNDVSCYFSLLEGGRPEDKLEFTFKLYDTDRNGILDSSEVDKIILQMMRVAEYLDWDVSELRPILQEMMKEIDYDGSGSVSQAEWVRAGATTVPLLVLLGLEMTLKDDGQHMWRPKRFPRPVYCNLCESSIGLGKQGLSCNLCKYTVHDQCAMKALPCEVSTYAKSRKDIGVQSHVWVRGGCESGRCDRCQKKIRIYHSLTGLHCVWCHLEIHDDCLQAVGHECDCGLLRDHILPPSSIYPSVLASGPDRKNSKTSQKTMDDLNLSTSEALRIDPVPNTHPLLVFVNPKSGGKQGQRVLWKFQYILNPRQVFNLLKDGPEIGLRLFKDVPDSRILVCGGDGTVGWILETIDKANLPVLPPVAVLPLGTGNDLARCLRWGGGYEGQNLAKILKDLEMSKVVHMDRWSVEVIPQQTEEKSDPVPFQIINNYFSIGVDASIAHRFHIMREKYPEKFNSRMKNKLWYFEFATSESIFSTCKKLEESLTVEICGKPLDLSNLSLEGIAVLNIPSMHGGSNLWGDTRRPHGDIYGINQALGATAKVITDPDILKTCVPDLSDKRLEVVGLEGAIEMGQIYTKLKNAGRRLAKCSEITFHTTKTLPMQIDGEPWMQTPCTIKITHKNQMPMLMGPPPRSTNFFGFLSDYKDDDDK

SMILES | IC50 [nM]
Cc1ccc2oc(C3CCN(c4c(C#N)c(=O)n(C)c5c(Br)cccc45)CC3)nc2c1 [Example 397, 8-bromo-1-methyl-4-[4-(5-methyl-1,3-benzoxazol-2-yl)piperidin-1-yl]-2-oxo-1,2-dihydroquinoline-3-carbonitrile] | 399
Cc1ccc2oc(C3(C)CCN(c4c(C#N)c(=O)n(C)c5c(C6CC6)cccc45)CC3)nc2c1 [Example 272, 8-cyclopropyl-1-methyl-4-[4-methyl-4-(5-methyl-1,3-benzoxazol-2-yl)piperidin-1-yl]-2-oxo-1,2-dihydroquinoline-3-carbonitrile] | 113
Cc1ccc2oc(C3CCN(c4c(C#N)c(=O)n(C)c5ccc(OCC(C)(F)F)cc45)CC3)nc2c1 [Example 406, 6-(2,2-difluoropropoxy)-1-methyl-4-[4-(5-methyl-1,3-benzoxazol-2-yl)piperidin-1-yl]-2-oxo-1,2-dihydroquinoline-3-carbonitrile] | 36
CCOc1ccc2c(c1)c(N1CCC(c3nc4cc(C)ccc4o3)CC1)c(C(N)=O)c(=O)n2C [Example 502, 6-ethoxy-1-methyl-4-[4-(5-methyl-1,3-benzoxazol-2-yl)piperidin-1-yl]-2-oxo-1,2-dihydroquinoline-3-carboxamide] | 120
COc1ccc(C2CCN(c3c(C#N)c(=O)n(C)c4cc(C#N)ccc34)CC2)cc1 [Example 93, 4-[4-(4-methoxyphenyl)piperidin-1-yl]-1-methyl-2-oxo-1,2-dihydroquinoline-3,7-dicarbonitrile] | 11
Cn1c(=O)c(C#N)c(N2CCC(c3nc4ccccc4s3)CC2)c2ccc(Br)cc21 [Example 33, 4-[4-(1,3-benzothiazol-2-yl)piperidin-1-yl]-7-bromo-1-methyl-2-oxo-1,2-dihydroquinoline-3-carbonitrile] | 6.2
Cc1cccc(-c2nnc(C3CCN(c4c(C#N)c(=O)n(C)c5ccc(Br)cc45)CC3)o2)c1 [Example 443, 6-bromo-1-methyl-4-{4-[5-(3-methylphenyl)-1,3,4-oxadiazol-2-yl]piperidin-1-yl}-2-oxo-1,2-dihydroquinoline-3-carbonitrile] | 9.1
Cc1ccc2oc(C3CCN(c4c(C(N)=O)c(=O)n(C)c5cc(F)ccc45)CC3)nc2c1 [Example 304, 7-fluoro-1-methyl-4-[4-(5-methyl-1,3-benzoxazol-2-yl)piperidin-1-yl]-2-oxo-1,2-dihydroquinoline-3-carboxamide] | 2.1
Cn1c(=O)c(C#N)c(N2CCC(c3nc4ccccc4o3)CC2)c2cccc(Cl)c21 [Example 162, 4-[4-(1,3-benzoxazol-2-yl)piperidin-1-yl]-8-chloro-1-methyl-2-oxo-1,2-dihydroquinoline-3-carbonitrile] | 134
COc1ccc(-c2noc(C3CCN(c4c(C(N)=O)c(=O)n(C)c5ccccc45)CC3)n2)cc1 [Example 459, 4-{4-[3-(4-methoxyphenyl)-1,2,4-oxadiazol-5-yl]piperidin-1-yl}-1-methyl-2-oxo-1,2-dihydroquinoline-3-carboxamide] | 9.8
COc1ccc2c(c1)c(N1CCC(c3nc(-c4ccccc4)no3)CC1)c(C(N)=O)c(=O)n2C [Example 521, 6-methoxy-1-methyl-2-oxo-4-[4-(3-phenyl-1,2,4-oxadiazol-5-yl)piperidin-1-yl]-1,2-dihydroquinoline-3-carboxamide] | 43
Cn1c(=O)c(C#N)c(N2CCC(c3ccc4c(c3)C(C)(C)CN4)CC2)c2ccccc21 [Example 356, 4-[4-(3,3-dimethyl-2,3-dihydro-1H-indol-5-yl)piperidin-1-yl]-1-methyl-2-oxo-1,2-dihydroquinoline-3-carbonitrile] | 5.1
Cc1ccc2c(c1)c(N1CCC(c3nc4ccccc4o3)CC1)c(C(N)=O)c(=O)n2C [Example 193, 4-[4-(1,3-benzoxazol-2-yl)piperidin-1-yl]-1,6-dimethyl-2-oxo-1,2-dihydroquinoline-3-carboxamide] | 2.4
Cn1c(=O)c(C#N)c(N2CCC(c3nc4ccccc4o3)CC2)c2cccc(Br)c21 [Example 161, 4-[4-(1,3-benzoxazol-2-yl)piperidin-1-yl]-8-bromo-1-methyl-2-oxo-1,2-dihydroquinoline-3-carbonitrile] | 1100
Cc1ccc2oc(C3CCN(c4c(C#N)c(=O)n(C)c5cc(OC6CCCOC6)ccc45)CC3)nc2c1 (stereo not shown) [Example 414, 1-methyl-4-[4-(5-methyl-1,3-benzoxazol-2-yl)piperidin-1-yl]-7-{[oxan-3-yl]oxy}-2-oxo-1,2-dihydroquinoline-3-carbonitrile] | 1.3
Cc1cc2c(N3CCC(c4cnn(-c5ccccc5C)c4)CC3)c(C#N)c(=O)n(C)c2cc1Br [Example 579, 7-bromo-1,6-dimethyl-4-{4-[1-(2-methylphenyl)-1H-pyrazol-4-yl]piperidin-1-yl}-2-oxo-1,2-dihydroquinoline-3-carbonitrile] | 61
Cn1c(=O)c(C#N)c(N2CCC(c3nc4ccccc4o3)CC2)c2ccccc21 [Example 2, 4-[4-(1,3-benzoxazol-2-yl)piperidin-1-yl]-1-methyl-2-oxo-1,2-dihydroquinoline-3-carbonitrile] | 6.4

SMILES | IC50 [nM]
COc1ccccc1-c1csc(C2CCN(c3c(C(N)=O)c(=O)n(C)c4ccccc34)CC2)n1 [Example 477, 4-{4-[4-(2-methoxyphenyl)-1,3-thiazol-2-yl]piperidin-1-yl}-1-methyl-2-oxo-1,2-dihydroquinoline-3-carboxamide] | 3.9
Cc1ccc2oc(C3(C)CCN(c4c(C#N)c(=O)n(C)c5cc(C#N)ccc45)CC3)nc2c1 [Example 249, 1-methyl-4-[4-methyl-4-(5-methyl-1,3-benzoxazol-2-yl)piperidin-1-yl]-2-oxo-1,2-dihydroquinoline-3,7-dicarbonitrile] | 7.2
Cc1cc2c(N3CCC(c4ccn(-c5ccccc5C)n4)CC3)c(C#N)c(=O)n(C)c2cc1Br [Example 560, 7-bromo-1,6-dimethyl-4-{4-[1-(2-methylphenyl)-1H-pyrazol-3-yl]piperidin-1-yl}-2-oxo-1,2-dihydroquinoline-3-carbonitrile] | 105
Cn1c(=O)c(C#N)c(N2CCC(c3ccc4c(c3)C3(CCC3)C(=O)N4)CC2)c2ccccc21 [Example 361, 1-methyl-2-oxo-4-[4-(2′-oxo-1′,2′-dihydrospiro[cyclobutane-1,3′-indol]-5′-yl)piperidin-1-yl]-1,2-dihydroquinoline-3-carbonitrile] | 27
Cn1c(=O)c(C#N)c(N2CCC(c3nc4ccccc4o3)CC2)c2cc(Br)ccc21 [Example 168, 4-[4-(1,3-benzoxazol-2-yl)piperidin-1-yl]-6-bromo-1-methyl-2-oxo-1,2-dihydroquinoline-3-carbonitrile] | 0.5
Cc1cc(F)cc(C2CCN(c3c(C#N)c(=O)n(C)c4ccccc34)CC2)c1 [Example 51, 4-[4-(3-fluoro-5-methylphenyl)piperidin-1-yl]-1-methyl-2-oxo-1,2-dihydroquinoline-3-carbonitrile] | 8.3
Cc1ccc2oc(C3(C)CCN(c4c(C#N)c(=O)n(C)c5c(OC6CC6)cccc45)CC3)nc2c1 [Example 262, 8-(cyclopropyloxy)-1-methyl-4-[4-methyl-4-(5-methyl-1,3-benzoxazol-2-yl)piperidin-1-yl]-2-oxo-1,2-dihydroquinoline-3-carbonitrile] | 36
COc1ccc(C2CCN(c3c(C#N)c(=O)n(C)c4ccc(S(C)(=O)=O)cc34)CC2)cc1 [Example 178, 6-(methanesulfonyl)-4-[4-(4-methoxyphenyl)piperidin-1-yl]-1-methyl-2-oxo-1,2-dihydroquinoline-3-carbonitrile] | 298
Cn1c(=O)c(C#N)c(N2CCC(c3ccc(N4CCCC4=O)cc3)CC2)c2ccccc21 [Example 59] | 23
Cn1c(=O)c(C#N)c(N2CCC(c3ccccc3)CC2)c2ccccc21 [Example 57, 1-methyl-2-oxo-4-(4-phenylpiperidin-1-yl)-1,2-dihydroquinoline-3-carbonitrile] | 22
Cc1ccc2oc(C3CCN(c4c(C(N)=O)c(=O)n(C)c5cc(F)c(C#N)cc45)CC3)nc2c1 [Example 564, 6-cyano-7-fluoro-1-methyl-4-[4-(5-methyl-1,3-benzoxazol-2-yl)piperidin-1-yl]-2-oxo-1,2-dihydroquinoline-3-carboxamide] | 3.3
COCc1ccc2nc(C3(C)CCN(c4c(C(N)=O)c(=O)n(C)c5ccccc45)CC3)oc2c1 [Example 491, 4-{4-[6-(methoxymethyl)-1,3-benzoxazol-2-yl]-4-methylpiperidin-1-yl}-1-methyl-2-oxo-1,2-dihydroquinoline-3-carboxamide] | 9.1
Cc1ccc2oc(C3CCN(c4c(C#N)c(=O)n(C)c5ccc(C6CCC6(C)C)cc45)CC3)nc2c1 (stereo not shown) [Example 410, 6-[2,2-dimethylcyclobutyl]-1-methyl-4-[4-(5-methyl-1,3-benzoxazol-2-yl)piperidin-1-yl]-2-oxo-1,2-dihydroquinoline-3-carbonitrile] | 51
Cn1c(=O)c(C#N)c(N2CCC(c3nc4ccccc4s3)CC2)c2cc(Br)ccc21 [Example 169, 4-[4-(1,3-benzothiazol-2-yl)piperidin-1-yl]-6-bromo-1-methyl-2-oxo-1,2-dihydroquinoline-3-carbonitrile] | 0.6
COc1cc2c(cc1Br)c(N1CCC(c3nc(-c4ccccc4C)no3)CC1)c(C#N)c(=O)n2C [Example 530, 6-bromo-7-methoxy-1-methyl-4-{4-[3-(2-methylphenyl)-1,2,4-oxadiazol-5-yl]piperidin-1-yl}-2-oxo-1,2-dihydroquinoline-3-carbonitrile] | 1.8
Cn1c(=O)c(C#N)c(N2CCC(c3ccccc3)CC2)c2ccc(Br)cc21 [Example 90, 7-bromo-1-methyl-2-oxo-4-(4-phenylpiperidin-1-yl)-1,2-dihydroquinoline-3-carbonitrile] | 5.5
Cn1nccc1C1CCN(c2c(C#N)c(=O)n(C)c3ccccc23)CC1 [Example 149, 1-methyl-4-[4-(1-methyl-1H-pyrazol-5-yl)piperidin-1-yl]-2-oxo-1,2-dihydroquinoline-3-carbonitrile] | 1100

Source: US11998539B2, “Substituted aminoquinolones as DGKalpha inhibitors for immune activation” (Bayer Aktiengesellschaft, priority 2019, dated 2024)
